Data on two compounds can be found in paper PMC3607822 (The Journal of General Physiology, 2013).

As a reminder, the Hill coefficient is the slope factor of the fitted curve.

Holding throughout (type): biochemical
Assay [1] deals with T1, CNGA3 N7R-A, 613X channels (Homo sapiens, UniProt Q16281, R101A/R103A/R72A/R75A/R81A/R82A/R86A).
T1 sequence (Q16281 1-612 R72A/R75A/R81A/R82A/R86A/R101A/R103A limits assumed): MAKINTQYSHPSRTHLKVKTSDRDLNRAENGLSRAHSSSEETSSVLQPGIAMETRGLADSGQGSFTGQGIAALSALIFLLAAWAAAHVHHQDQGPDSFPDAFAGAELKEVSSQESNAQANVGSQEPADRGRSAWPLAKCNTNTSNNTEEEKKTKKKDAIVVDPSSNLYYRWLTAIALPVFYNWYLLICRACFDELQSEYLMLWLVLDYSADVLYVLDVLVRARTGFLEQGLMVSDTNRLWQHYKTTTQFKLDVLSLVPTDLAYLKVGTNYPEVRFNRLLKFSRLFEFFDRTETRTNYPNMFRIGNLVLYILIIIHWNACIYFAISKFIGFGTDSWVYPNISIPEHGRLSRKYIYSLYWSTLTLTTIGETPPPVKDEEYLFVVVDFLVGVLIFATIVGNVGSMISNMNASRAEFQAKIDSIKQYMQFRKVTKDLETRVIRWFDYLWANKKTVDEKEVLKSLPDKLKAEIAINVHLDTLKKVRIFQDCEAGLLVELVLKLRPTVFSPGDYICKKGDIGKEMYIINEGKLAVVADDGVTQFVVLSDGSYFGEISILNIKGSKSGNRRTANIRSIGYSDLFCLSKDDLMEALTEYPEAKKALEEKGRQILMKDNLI
Nature of the assay: Inside-out patch clamp, CNGA3 N7R-A, 613X. Background: In patch-clamp work, channel activity is measured electrically.

For a further assay, the target named is CNGA3 D609M channels (Homo sapiens, UniProt Q16281, D609M). Nature of the assay: Inside-out patch clamp, CNGA3 D609M.
Assay [2] concerns the target T2, CNGA3 635X homomeric channels (Homo sapiens, UniProt Q16281).
T2 sequence (Q16281 1-634 limits assumed): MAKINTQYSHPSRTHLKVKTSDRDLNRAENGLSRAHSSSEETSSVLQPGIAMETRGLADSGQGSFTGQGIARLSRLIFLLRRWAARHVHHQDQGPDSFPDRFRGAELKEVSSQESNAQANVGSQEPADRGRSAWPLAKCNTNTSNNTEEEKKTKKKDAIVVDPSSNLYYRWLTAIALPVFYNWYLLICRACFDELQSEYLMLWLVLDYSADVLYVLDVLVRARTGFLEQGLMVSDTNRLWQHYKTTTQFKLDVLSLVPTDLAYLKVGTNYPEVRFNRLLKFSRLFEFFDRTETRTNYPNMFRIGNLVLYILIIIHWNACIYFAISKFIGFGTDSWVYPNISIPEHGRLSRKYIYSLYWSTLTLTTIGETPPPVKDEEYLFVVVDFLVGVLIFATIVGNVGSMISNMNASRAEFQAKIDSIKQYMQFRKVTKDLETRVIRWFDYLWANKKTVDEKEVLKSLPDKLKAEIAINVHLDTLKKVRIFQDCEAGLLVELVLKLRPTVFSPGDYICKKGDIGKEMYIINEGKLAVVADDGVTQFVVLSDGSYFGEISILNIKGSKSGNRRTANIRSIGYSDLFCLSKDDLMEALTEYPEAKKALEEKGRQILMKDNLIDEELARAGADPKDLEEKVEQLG
Put plainly: Inside-out patch clamp, CNGA3 635X.

Assay [3] addresses T3, human CNGA3 wild-type homomeric channels (Homo sapiens, UniProt Q16281).
T3 sequence (Q16281 1-694): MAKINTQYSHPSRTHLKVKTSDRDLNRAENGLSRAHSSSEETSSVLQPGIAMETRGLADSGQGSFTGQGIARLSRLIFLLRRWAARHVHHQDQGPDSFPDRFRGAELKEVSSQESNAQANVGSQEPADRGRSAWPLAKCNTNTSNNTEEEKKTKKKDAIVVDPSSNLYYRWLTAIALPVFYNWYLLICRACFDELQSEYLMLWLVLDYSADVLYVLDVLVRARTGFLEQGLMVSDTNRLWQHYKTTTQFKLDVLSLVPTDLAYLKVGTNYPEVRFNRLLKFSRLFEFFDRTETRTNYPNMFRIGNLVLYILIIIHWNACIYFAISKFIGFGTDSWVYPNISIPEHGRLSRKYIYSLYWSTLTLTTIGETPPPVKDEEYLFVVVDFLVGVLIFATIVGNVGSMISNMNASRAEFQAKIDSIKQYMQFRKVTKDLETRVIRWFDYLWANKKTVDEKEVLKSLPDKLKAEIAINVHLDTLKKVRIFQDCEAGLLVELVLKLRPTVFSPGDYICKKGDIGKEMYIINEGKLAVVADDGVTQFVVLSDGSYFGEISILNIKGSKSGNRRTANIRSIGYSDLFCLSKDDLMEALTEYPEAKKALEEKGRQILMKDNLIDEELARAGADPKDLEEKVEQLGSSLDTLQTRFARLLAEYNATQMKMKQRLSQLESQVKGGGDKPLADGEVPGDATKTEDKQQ
Put plainly: Inside-out patch clamp, homomeric CNGA3 wild type expressed in X. laevis oocytes.

Assay [4] has as its target T4, CNGA3 675X homomeric channels (Homo sapiens, UniProt Q16281).
T4 sequence (Q16281 1-674 limits assumed): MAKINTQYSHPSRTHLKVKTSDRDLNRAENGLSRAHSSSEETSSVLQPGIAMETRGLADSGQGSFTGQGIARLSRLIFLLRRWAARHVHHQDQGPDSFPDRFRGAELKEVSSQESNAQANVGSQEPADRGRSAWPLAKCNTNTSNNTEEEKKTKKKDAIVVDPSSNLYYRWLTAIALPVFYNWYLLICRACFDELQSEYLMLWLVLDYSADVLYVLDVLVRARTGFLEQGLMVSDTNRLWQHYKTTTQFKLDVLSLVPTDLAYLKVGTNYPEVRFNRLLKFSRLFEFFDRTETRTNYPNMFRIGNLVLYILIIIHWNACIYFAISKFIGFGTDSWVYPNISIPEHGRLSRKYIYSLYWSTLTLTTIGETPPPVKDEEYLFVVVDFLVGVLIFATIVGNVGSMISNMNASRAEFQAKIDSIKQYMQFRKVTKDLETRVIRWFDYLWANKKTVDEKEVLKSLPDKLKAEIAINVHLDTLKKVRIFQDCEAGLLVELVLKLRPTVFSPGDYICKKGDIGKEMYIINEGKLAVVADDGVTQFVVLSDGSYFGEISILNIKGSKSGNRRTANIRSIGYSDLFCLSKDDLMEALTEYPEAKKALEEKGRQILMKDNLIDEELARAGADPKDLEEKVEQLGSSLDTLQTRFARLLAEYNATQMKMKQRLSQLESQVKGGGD
Nature of the assay: Inside-out patch clamp, CNGA3 675X.

Setting [5] is: read-out: K1/2 cGMP, +80 mV, no PIPn.

Chain of CNGA3 D609M channels (Q16281 whole entry D609M): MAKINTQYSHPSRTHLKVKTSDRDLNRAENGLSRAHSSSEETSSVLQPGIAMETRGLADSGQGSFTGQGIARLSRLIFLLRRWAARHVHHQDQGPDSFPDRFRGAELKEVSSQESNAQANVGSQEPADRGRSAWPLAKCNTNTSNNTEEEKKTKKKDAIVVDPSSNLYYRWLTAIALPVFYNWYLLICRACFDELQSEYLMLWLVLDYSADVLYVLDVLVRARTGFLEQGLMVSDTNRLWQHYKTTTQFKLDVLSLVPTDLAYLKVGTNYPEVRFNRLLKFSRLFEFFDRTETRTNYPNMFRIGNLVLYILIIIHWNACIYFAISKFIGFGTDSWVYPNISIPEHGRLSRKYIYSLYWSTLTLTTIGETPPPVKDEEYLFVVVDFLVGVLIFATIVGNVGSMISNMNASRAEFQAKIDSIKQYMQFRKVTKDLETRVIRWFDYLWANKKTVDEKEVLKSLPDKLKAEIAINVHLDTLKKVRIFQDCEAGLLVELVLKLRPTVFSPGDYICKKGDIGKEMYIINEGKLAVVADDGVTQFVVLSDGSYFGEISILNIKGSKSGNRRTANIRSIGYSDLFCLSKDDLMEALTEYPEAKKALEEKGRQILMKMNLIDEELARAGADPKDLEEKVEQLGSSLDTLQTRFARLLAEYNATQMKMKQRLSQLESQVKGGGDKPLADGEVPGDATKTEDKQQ

Take “phosphatidylinositol (3,4,5)-trisphosphate [PIP3]”: the “fold change in K1/2 cGMP after PIP3” value in assay [1] (10 µM PIP3) was 1.02 ± 0.05 fold. The “effect on relative cGMP efficacy” value on CNGA3 D609M channels (1 µM PIP3) is listed as “elevated relative cGMP efficacy”. The “PIP3-induced change in cAMP efficacy” value in assay [2] (1 µM PIP3) was “failed to show a PIP3-dependent increase in cAMP efficacy”; in assay [4] (1 µM PIP3) it was “preserved the PIP3-induced change in cAMP efficacy”. The “fold change in cAMP efficacy after PIP3” value in assay [2] (10 µM PIP3) amounted to 1.06 ± 0.03 fold. For the same compound, the “fold increase Imax cAMP/cGMP” value in assay [3] (1 µM PIP3 after prior application of cyto D) was determined as 2.54 ± 0.27 fold. In addition, the “fold increase in Imax cAMP/cGMP” value in assay [3] (10 µM phosphoinositide applied to inside-out patch) is recorded as 2.63 ± 0.13 fold. The “effect on maximal cGMP current” value in assay [3] (1 mM cGMP) is “not significantly altered”. Moreover, the “K1/2 cAMP after phosphoinositide” value in assay [3] (apparent cAMP affinity after PIP3 or PIP2 application) is recorded as 1.16 ± 0.06 mM. In assay [3] (fluctuation analysis), the “Po max cAMP after PIP3” value is 0.37 ± 0.07. The “Po max cGMP after PIP3” value in assay [3] (fluctuation analysis) worked out at 0.93 ± 0.01.
`Nc1nc2c(ncn2[C@@H]2O[C@@H]3COP(=O)(O)O[C@H]3[C@H]2O)c(=O)[nH]1` [cGMP, cyclic guanosine monophosphate]: the Hill coefficient was 1.82 ± 0.04 (6) in assay [1] (cGMP activation), 2.00 ± 0.00 (5) in assay [2] (cGMP activation), 1.91 ± 0.04 (18) in assay [3] (cGMP activation) and 1.88 ± 0.05 (4) in assay [4] (cGMP activation). In addition, the EC50 in assay [1] (setting [5]) amounted to 16.4 ± 1.65 µM; in assay [2] (setting [5]) it was 8.2 ± 0.57 µM; in assay [3] (setting [5]), 9.29 ± 0.43 µM; in assay [4] (setting [5]), 9.22 ± 0.55 µM. Also, the “Po max cGMP” value on CNGA3 D609M channels (estimated using tetracaine block) is reported as 0.30 ± 0.02; in assay [2] (saturating cGMP) it was 0.92 ± 0.01 (4); in assay [3] (estimated from state-dependent block by tetracaine) it was around 0.99.
